Source: patent US20260248773A1, “POTASSIUM CHANNEL BLOCKERS OR DERIVATIVES THEREOF FOR PREVENTING, ALLEVIATING, AND/OR TREATING TISSUE DYSFUNCTION CAUSED BY TOXIC INSULTS” (priority 2022, published 2026)

How the values were obtained:
CIS-induced CIPN = assay type: in vivo, mice; conditions: 4-AP 1 mg/kg daily for next six weeks
Method: In these experiments, 16-week-old C7BL/6 female mice were treated with CIS (2.5 mg/kg, once weekly, i.p.) for eight weeks. Animals were then treated with 4-AP (1 mg/kg daily) for the next six weeks (n=4).

Guillain-Barré Syndrome = conditions: cited from earlier work
[1] = test system: chemotherapy-induced peripheral neuropathy (CIPN) caused by PTX
Method: More specifically, initial studies were conducted on the specific case of CIPN as induced by exposure to PTX. […] 16 week old C73L/6 female mice were given a single dose of 35 mg/kg PTX (i.p.). Animals were separated into control (saline, i.p., n=4) or treatment group (2 mg/kg 4-AP daily, i.p., n=4). Pre-treatment Catwalk scores were compared to 21 days post-PTX injection.
To align with clinical treatments, mice were treated with a PTX dose of 35 mg/kg (equivalent to approximately 110 mg/m^2 and within the clinical treatment range) for four cycles, each three weeks apart.
The studies also included a 4-AP treatment arm (n=4) with a daily dose of 2 mg/kg 4-AP administered i.p. (as per most previous studies by MN and colleagues).
To evaluate detailed functional changes in gait, the CatWalk™ (Noldus Information Technology, Wageningen, The Netherlands) method was implemented.
Sciatic nerve samples were harvested and resin-embedded, sectioned and imaged using transmission electron microscopy. Images were analyzed to calculate markers of peripheral neuropathy, namely: axon counts, fiber size, myelination (g ratio), and circumferential irregularity (FIG. 2).

[2] = 3 weeks after one 35 mg/kg PTX, 2 mg/kg 4-AP daily
[3] = single 35 mg/kg PTX i.p., 2 mg/kg 4-AP daily i.p., vs saline control
[4] = single 35 mg/kg PTX, 2 mg/kg 4-AP daily i.p., pre-treatment vs 21 days post-PTX

Nc1ccncc1 [4-AP, 4-aminopyridine]
body weight (CIS-induced CIPN; CIS 2.5 mg/kg once weekly i.p. for eight weeks): regained normal body weight
hyperalgesia, Von Frey filament analysis (CIS-induced CIPN; CIS eight weeks): restoration of normal levels of sensitivity
nerve impulse amplitude (CIS-induced CIPN; CIS eight weeks): also restored by 4-AP treatment
nerve impulse velocity (CIS-induced CIPN; CIS eight weeks): also restored by 4-AP treatment
pain scores (McGill Pain Inventory questionnaire, visual analog scale) (Guillain-Barré Syndrome; 4-AP vs placebo, p=0.92): no difference
nerve conduction velocity (Guillain-Barré Syndrome; Guillain-Barré patients): no clinically significant changes
PTX-induced changes in mitochondrial size and health ([1]; 2 mg/kg 4-AP daily i.p.): decreased PTX-induced changes in mitochondrial size and health
signs of CIPN ([1]; 2 mg/kg 4-AP daily i.p. vs saline, n=4): significantly reduced signs of CIPN
G ratio (axon:myelin area), sciatic nerve [1, 2]: better myelinated than the control group
axon circularity, sciatic nerve [1, 2]: more regularly structured than the control group
nerve conduction latency [1, 3]: significantly smaller increase in latency
nerve conduction velocity [1, 3]: significantly smaller decrease in velocity
Catwalk stance phase [1, 4]: no significant changes
Catwalk swing phase [1, 4]: no significant changes
